Entries after “also recorded” stand apart in the source; their conditions may differ.
How the values were obtained:
[1] = test system: gp120-induced calcium signaling in HT-29 cells; test: Inhibition of gp120-induced calcium signaling in HT-29 cells; format: cell-based, human; details: pretreatment
Procedure: (§1) Calcium studies were done on HT-29 cells and Ghost (3) cells loaded with Fluo 4. The cells were placed in Locke's buffer containing 5 μg/ml Fluo 4 AM ester (Molecular Probes) for 20 to 30 minutes, then in Locke's buffer for an additional 30 minutes before testing. Various concentrations of gp120IIIB (X4 trophic), gp120CM235 (R5 trophic), gp120mN (X4 trophic), gp12093TH975 (nonsyncytium-inducing primary isolate from an asymptomatic subject, trophism undetermined but likely R5), and gp120SF2 (X4R5 trophic), ranging from 10 nM to less than 1 pM, were added in Locke's buffer.^6 The gp120 proteins were obtained from the AIDS Research Reagent Referral Program. Some HT-29 cells were given one of the following pretreatments: 50 μg/ml anti-Bob37 overnight, 1 μg/ml pertussis toxin overnight, or 4.6 μg/ml U73122 for one hour. With the HT-29 cells only, similar tests were also performed with SDF-1, MIP-1α, MIP-1β, and RANTES rather than gp120. The cells were visualized every 4 seconds in a confocal microscope, using 488 nm argon laser excitation and detection filters appropriate for fluorescein-like dyes.
Blocking antibody experiments were done with HT-29 cells (monitoring calcium flux, microtubule loss, or transepithelial resistance), with Ghost (3) Bob cells (monitoring calcium flux) and peripheral blood mononuclear cells (monitoring calcium flux and HIV infection). Specifics of these protocols and the specific results are given herein. […] Antibody concentrations of 40 to 50 micrograms/ml overnight were needed for maximal effect.
(§2) For the first two or three days after plating, gp120 induces an immediate (within 4 seconds) calcium flux in undifferentiated HT-29 cells. The cells had previously been loaded with Fluo-4 AM ester (Molecular Probes, Eugene Oreg.) 5 micrograms/ml in the presence of Pleuronic F-127 0.02% in Locke's buffer for 30 minutes, then incubated at room temperature for an additional 30 minutes. Gp120IIIB was added while the cells were on an inverted confocal microscope using a 488 nm argon laser, with detection filters suitable for fluorescein-like dyes. […]

[2] = Interaction of synthetic Bob peptides with GalCer monolayer (surface pressure); format: binding, human; details: initial surface pressure 10 mN/m; at equilibrium; mean of three experiments ±SD
Procedure: Artificial membranes composed entirely of galactosyl ceramide with an alpha hydroxylated fatty acid were made. The surface pressure was measured with a microtensimeter (Kibron Inc., Finland) designed for the study of protein-lipid interactions. The peptides used for immunization were added to the subphase, and the surface pressure was continuously measured until equilibrium was reached. The increase in pressure was expressed in mN/m.
A monolayer of GalCer was prepared at the air-water interface at an initial surface pressure of 10 mN/m. The maximal surface surface pressure increase (Δπmax) reached at the equilibrium is indicated. The values are the mean of three separate experiments (±SD).
(§3) Galactosylceramide with an α-hydroxylated fatty acid (referred to as GalCer throughout this study) was either prepared from bovine brain (Sigma) or purified from HT-29-D4 membrane rafts (Fantini et al., 2000a). The surface pressure was measured with a microtensiometer (Kibron Inc., Finland) specially designed for studying protein-lipid interactions (Fantini et al., 2000a). The experiments were carried at 25° C. out in a laboratory equipped with a filtered air supply. A solution of GalCer was prepared extemporaneously in hexane:chloroform:methanol, 11:5:4 (v:v:v) at a concentration of 1 mg/ml. The lipid was carefully spread onto the meniscus of a pure water subphase (800 μl). The proteic ligand (GPR15/Bob peptides or HIV-1 gp120) was injected into the subphase with a 10 μl Hamilton syringe. The surface pressure was continuously measured as a function of time until reaching equilibrium corresponding to the maximal surface presure increase (Δπmax) expressed in mN/m.

HT-29 cells = test: Calcium signaling in HT-29 cells (Fluo 4, confocal microscope); format: cell-based, human
Procedure: HT-29 cells (from ATCC) were grown in DMEM-F12 with 10% bovine calf serum, and were used 24-48 hours after plating. The Ghost (3) cells were obtained from the AIDS Research and Reference Reagent Program, and were grown DMEM with 10% bovine calf serum supplemented with 500 μg/ml G418, 100 μg/ml hygromycin, and 1 μg/ml puromycin.^27 These cells were used 24 to 96 hours after plating.
as §1, §2

HT-29-D4 cells = test: Transepithelial resistance (TEER) of differentiated HT-29-D4 cells; format: cell-based, human; details: electrophysiological medium
[3] = GalCer-gp120 interactions at the air-water interface (surface pressure); format: binding; details: gp120 5 nM in aqueous subphase
Procedure: A monomolecular film of GalCer was prepared at the air-water interface and gp120 purified from either IIIB (full squares), SEN (open circles) or 89.6 (full circles) isolates was added in the aqueous subphase at a concentration of 5 nM. The kinetics of the surface pressure increase induced by the viral glycoproteins are shown.
as §3
In a recent study, it was shown that the interaction between GalCer and gp120 purified from HIV-1(IIIB) was very efficient, whereas gp120s from 89.6 and SEN isolates interacted very weakly (Hammache et al., 1998). The kinetics of this interaction are an important physicochemical parameter allowing the direct comparison of GalCer recognition by various gp120s. In the experiment shown in FIG. 11, gp120 purified from IIIB, SEN, or 89.6 was injected underneath a monomolecular film of GalCer at the air-water interface. The GalCer film mimics the topology of a GalCer raft as it is organized in the external leaflet of the plasma membrane. For this reason, the Langmuir film balance technique is one of the most sensitive and reliable for studying protein-glycolipid interactions (Maggio et al., 1994). […] The surface increase indicates a condensing effect of the gp120 on the lipidic film due to its interaction with GalCer molecules (Hammache et al., 1998). […] At this time however, the level of interaction indicated by the absolute increase of the surface pressure was identical to the one of gp120(IIIB). […] The GalCer-binding capacity of gp120(SEN) was reevaluated and shown to occur much more slowly, but not less efficiently, than of gp120(IIIB).

CXCR4 = molecular target: T1, CXCR4 (Homo sapiens, UniProt P61073); test: gp120-induced calcium flux, Ghost (3) cells transfected with CXCR4; format: cell-based; design: key: — = no calcium flux seen at any dilution tested; details: Ghost (3) CXCR4 cells
T1 construct: host or cells: Ghost (3) cells (human osteosarcoma, CD4+)
T1 sequence (P61073 whole entry): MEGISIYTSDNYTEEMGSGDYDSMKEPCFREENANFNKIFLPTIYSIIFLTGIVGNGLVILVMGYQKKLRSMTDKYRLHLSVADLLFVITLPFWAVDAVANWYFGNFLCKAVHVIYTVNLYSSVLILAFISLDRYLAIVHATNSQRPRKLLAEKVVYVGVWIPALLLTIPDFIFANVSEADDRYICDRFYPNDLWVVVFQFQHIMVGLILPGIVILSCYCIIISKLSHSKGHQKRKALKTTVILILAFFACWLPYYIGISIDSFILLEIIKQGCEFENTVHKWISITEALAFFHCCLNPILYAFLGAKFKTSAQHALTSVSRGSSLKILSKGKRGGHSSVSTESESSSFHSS
Procedure: as §1
(§4) Human osteosarcoma cell lines were transfected to express CD4, one or another of the HIV coreceptors, and a Green Fluorescent Protein reporter for active HIV infection, for the purpose of testing which of the known coreceptors was used to induce HIV infection by a given HIV strain (Morner A. J Virol 73:2343-9, 1999 and Deng K Nature 388:296-300, 1997). These cells were obtained from the AIDS Research and Reference Reagent Program, courtesy of Dr. Vineet KewalRamani and Dr. Dan Littman. These cells were grown in DMEM with 10% bovine calf serum supplemented with 0.5 mg/ml G418, 0.1 mg/ml hygromycin, and 1 microgram/ml puromycin, and were used at low passage number (less than 10). We have discovered that these cell lines are also activated by gp120 of certain viral strains, inducing a calcium flux in these cells.
(§5) Within 4 days of plating, coreceptor-transfected Ghost (3) cells (as well as the parent cell line not transfected to express any HIV coreceptors as a control) were put in Locke's medium, then treated with Fluo-4 (5 micrograms/ml for 30 minutes at 37° C.). After an additional 30 minute incubation in Locke's buffer at room temperature, the cells were examined in a confocal microscope while gp120 of various viral strains was added, and the cells were examined at 4 second intervals to look for a gp120-induced calcium flux. The results are given in the following table, expressed as the minimal concentration of gp120 resulting in a significant calcium flux. “−” means that no reproducible calcium flux was observed. “ND” means that the gp120 of that viral strain was not tested with the stated coreceptor. […]

CCR5 = molecular target: T2, CCR5 (Homo sapiens, UniProt P51681); test: gp120-induced calcium flux, Ghost (3) cells transfected with CCR5; format: cell-based; design: key: — = no calcium flux seen at any dilution tested; details: Ghost (3) CCR5 cells
T2 construct: host or cells: Ghost (3) cells (human osteosarcoma, CD4+)
T2 sequence (P51681 whole entry): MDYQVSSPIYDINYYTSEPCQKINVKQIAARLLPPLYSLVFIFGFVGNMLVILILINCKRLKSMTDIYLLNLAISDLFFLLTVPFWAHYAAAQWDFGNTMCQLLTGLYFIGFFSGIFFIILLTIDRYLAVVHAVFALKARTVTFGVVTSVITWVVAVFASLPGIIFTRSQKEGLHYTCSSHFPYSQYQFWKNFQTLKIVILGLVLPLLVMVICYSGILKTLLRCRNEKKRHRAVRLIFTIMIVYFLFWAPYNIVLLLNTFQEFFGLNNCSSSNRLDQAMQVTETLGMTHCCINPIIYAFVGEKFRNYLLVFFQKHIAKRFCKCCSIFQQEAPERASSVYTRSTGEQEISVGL
Procedure: as §1, §4, §5

[4] = test system: Ghost (3) parental cell line; test: gp120-induced calcium flux, Ghost (3) parental cell line; format: cell-based, human; design: key: — = no calcium flux seen at any dilution tested; details: Ghost (3) parental line
Procedure: as §1, §4, §5

Bob = molecular target: T3, Bob (Homo sapiens, UniProt P49685); test: gp120-induced calcium flux, Ghost (3) cells transfected with Bob (Fluo-4); format: cell-based; design: key to minimal concentration of gp120 resulting in a significant calcium flux: — = no calcium flux seen at any dilution tested
T3 construct: host or cells: Ghost (3) cells (human osteosarcoma, also transfected with CD4 and a GFP reporter)
T3 sequence (P49685 1-360): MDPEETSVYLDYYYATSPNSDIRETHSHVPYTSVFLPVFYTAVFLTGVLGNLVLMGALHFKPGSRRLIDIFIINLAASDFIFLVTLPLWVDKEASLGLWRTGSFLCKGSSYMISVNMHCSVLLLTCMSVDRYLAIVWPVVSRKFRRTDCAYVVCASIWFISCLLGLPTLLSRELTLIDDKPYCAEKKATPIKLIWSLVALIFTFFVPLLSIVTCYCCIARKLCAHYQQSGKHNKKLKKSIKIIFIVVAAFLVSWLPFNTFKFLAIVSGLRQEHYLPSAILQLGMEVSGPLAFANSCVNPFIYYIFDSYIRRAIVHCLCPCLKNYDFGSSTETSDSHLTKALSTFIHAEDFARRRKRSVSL
Procedure: as §1, §4
Within 4 days of plating, coreceptor-transfected Ghost (3) cells (as well as the parent cell line not transfected to express any HIV coreceptors as a control) were put in Locke's medium, then treated with Fluo-4 (5 micrograms/ml for 30 minutes at 37° C.). After an additional 30 minute incubation in Locke's buffer at room temperature, the cells were examined in a confocal microscope while gp120 of various viral strains was added, and the cells were examined at 4 second intervals to look for a gp120-induced calcium flux. The results are given in the following table, expressed as the minimal concentration of gp120 resulting in a significant calcium flux. “−” means that no reproducible calcium flux was observed. “ND” means that the gp120 of that viral strain was not tested with the stated coreceptor.
These cells were treated with serial dilutions (100 or 250 nM to at least 1 pM, or even less if calcium fluxes were noted) of gp120. Gp120s from each of four HIV-1 strains: IIIB, CM235, SF2, and […] were used. Listed is the greatest dilution which induced a significant, reproducible calcium flux. The parental line is known to express CXCR4 at very low levels. Those results indicated by an asterisk are thought to represent this artifact.

[5] = test system: peripheral blood mononuclear cells; test: gp120-induced calcium flux in peripheral blood mononuclear cells; format: cell-based, human; details: for inhibition of gp120IIIB-induced calcium flux, in words: pretreatment
Procedure: Normal human peripheral blood mononuclear cells were isolated by Ficoll gradient centrifugation, and loaded with the calcium sensitive dye Fluo-4. HIV gp120IIIB induced strong calcium fluxes in the range of 7 nM to 50 pM, and there was a weaker signal at 5 pM.
Experiments corresponding to those with HT-29 cells were done with peripheral blood mononuclear cells. These were isolated from the blood of a healthy, HIV-uninfected person by a Ficoll-Hypaque techique (Histopaque, Sigma), then loaded with Fluo-4 by a technique nearly identical to that used for HT-29 cells, except that Hank's buffer was used rather than Locke's, and the cells were centrifuged (2,000 g for 10 minutes) just before calcium flux measurements to improve adherence. Gp120-induced calcium fluxes were documented with as little as 5 pM gp120IIIB.

COc1ccc2c(c1)CC[C@@H]1[C@@H]2CC[C@]2(C)[C@@H](NCCCCCCN3C(=O)CCC3=O)CC[C@@H]12 [U73343]
inhibition of gp120-induced calcium signaling, in words [1]: no inhibitory effect and not

DKEASLGLWRTGSFLCK [P2, Bob peptide, first extracellular loop]
Δπ max [2]: 5.40 ± 1.52 mN/m

HAEDFARRRKRSVSL [P1, Bob peptide, internal C-ter domain]
Δπ max [2]: 1.89 ± 0.85 mN/m

KNYDFGSSTETSDSHLTK [P6, Bob peptide, internal C-ter domain]
Δπ max [2]: 2.67 ± 0.40 mN/m

MDPEETSVYLDYYYATS [P3, Bob peptide, extracellular N-ter end]
Δπ max [2]: 2.26 ± 0.12 mN/m

RELTLIDDKPYCAEKKAT [P5, Bob peptide, second extracellular loop]
Δπ max [2]: 6.86 ± 1.37 mN/m

SDF-1: natural ligand of CXCR4 [reference compound]
calcium signaling in HT-29 cells, in words (HT-29 cells): substantial calcium signal; also recorded: induced similar calcium signaling

SGLRQEHYLPSAILQ [P4, Bob peptide, third extracellular loop]
Δπ max [2]: 5.21 ± 1.06 mN/m

gp120(89.6): gp120 purified from primary isolate HIV-1(89.6)
TEER response, in words (HT-29-D4 cells): not observed | TEER response, in words (HT-29-D4 cells; listed as gp120 from 89.6): totally inactive | interaction with GalCer film, in words [3]: very little association with GalCer | maximal surface pressure increase relative to IIIB and SEN [3]: less than 50%

gp120MN: gp120 of HIV strain MN (X4 trophic)
minimal concentration of gp120 resulting in a significant calcium flux (CXCR4): — | minimal concentration of gp120 resulting in a significant calcium flux (CCR5): — | minimal concentration of gp120 resulting in a significant calcium flux [4]: — | minimal concentration of gp120 resulting in a significant calcium flux (Bob; Ghost (3) Bob cells, 100 or 250 nM to at least 1 pM): — | Bob activation / calcium signals in Bob-transfected Ghost (3) cells, in words (Bob; listed as MN): do not activate Bob; also recorded: did not cause calcium signals

heparin
inhibition of gp120IIIB-induced calcium flux ([5]; 15 minute preincubation of gp120IIIB with 40 micrograms/ml at 0-4° C., 200 nM gp120IIIB): 40 fold | inhibition of gp120IIIB-induced calcium flux, in words [5]: Inhibition | inhibition of gp120IIIB-induced calcium flux, in words ([5]; listed as sodium heparin): inhibited the calcium flux
